These results are taken from patent US12707888B2, “Asymmetric donor-acceptor molecular dyes” (THE UNIVERSITY OF NORTH CAROLINA AT CHARLOTTE, priority 2019, dated 2026).

For data set [1], the system named is HEK 293T cells. As to the kind of experiment: Whole-cell patch clamp voltage sensitivity. To be noted: 500 nM dye, cells held at −60 mV, 10 mV steps. It is filed as cell-based, Human. On the procedure: Having established its environmental sensitivity and proclivity for membrane localization, it was hypothesized that Bu2N-TTz-Py could orient itself favorably within cell membranes and sense voltage differentials across the membrane. To test the membrane voltage sensitivity of Bu2N-TTz-Py, whole-cell patch clamp electrophysiology was performed on HEK 293T cells labeled with 500 nM Bu2N-TTz-Py. […] Tests concluded that Bu2N-TTz-Py has a voltage sensitivity of approximately 10% ΔF/F per 100 mV. For context, early generation VSDs, such as RH-421, ANNINE-6, and VF2.1.Cl, display maximum voltage sensitivities of 10%-25% ΔF/F per 100 mV.
Cell labeled spectral measurements. Excitation and emission spectra were collected by labeling the alveolar macrophage cell line J774.A1 (~0.5×10^5 cells) with 1 μM Bu2N-TTz-Py in phosphate buffered saline (PBS) buffer and 0.1% TritonX-100. Cells were incubated with dye for 10 min at RT, washed thrice with PBS, and dispersed in a cuvette for fluorescent spectral measurements (Fluoromax-4, Horiba Scientific, Edison, NJ, USA). Excitation spectra were collected at 520 nm emission. Emission spectra were collected by exciting at 440 nm. Electrophysiology. […]
For orientation: In patch-clamp work, channel activity is measured electrically.

The subject of data set [2] is HEK 293T cells. As to the kind of experiment: Annexin V-Cy5 cytotoxicity. It counts as cell-based, Human. To be noted: 500 nM dye for 15 min. The protocol: FIG. 12C provides Annexin V-Cy5 staining of HEK 293T cells incubated with DMSO (Veh.), VF2.1.Cl, and Bu2N-TTz-Py. Apoptosis for control (incubated cells 65° C., 10 min). Percentages of cytotoxicity were calculated as number of 100×Cy5 positive cells per number of nuclei stained. Error bars represent S.E.M. of three independent experiments, n=250 cells. Scale bars=10 μm.
Lastly, the cellular toxicities of Bu2N-TTz-Py and VF2.1.Cl were characterized using Annexin V-Cy5 staining of phosphatidylserine. HEK 293T cells were labelled with Bu2N-TTz-Py or VF2.1.Cl for 15 min, incubated with Annexin V-Cy5 for 20 min in the dark, washed, and fixed with 4% paraformaldehyde before imaging. As a positive control, apoptosis was induced via high-temperature incubation (65° C., 10 min).
Cellular localization: Time-lapse imaging was performed to probe the membrane localization of Bu2N-TTz-Py at longer time scale. […] Intensity values at plasma membrane (IPM) were calculated by drawing regions of interest (ROI) around the whole cell and subtracting intracellular intensity (IIM, ROI drawn within the cell) for Bu2N-TTz-Py and CellMask images, respectively. […] Cytotoxicity percentage is calculated as number of Annexin V-Cy5 positive cells to total number of nuclear stained cells. Number of cells quantification were performed using Analyze particle function of ImageJ program.

On to `CCCCN(CCCC)c1ccc(-c2nc3sc(-c4ccncc4)nc3s2)cc1` [Bu2N-TTz-Py, 2-(N,N-dibutyl-4-aminophenyl)-5-(4-pyridyl) thiazolo[5,4-d]thiazole], for which, in data set [1], the voltage sensitivity entry is on record as “approximately 10 % ΔF/F per 100 mV”. Moreover, the “cytotoxicity (Annexin V-Cy5 staining)” value in data set [2] was “insignificant cytotoxicity”.
